Laboratory results reported in patent US20240307396A1, “COMPOSITIONS AND METHODS FOR TREATING CELIAC DISEASE” (THE REGENTS OF THE UNIVERSITY OF CALIFORNIA, priority 2021, published 2024).
Entries after “also recorded” stand apart in the source; their conditions may differ.

Legend:
[1] = test system: Type II refractory celiac disease; assay: Trend of pertinent laboratory values in a Type II RCD patient across sequential treatments; format: in vivo, human; set-up: CRP: unit not given beside the values; details: for CRP / DGP IgA / TTG IgA: same patient, Budesonide 3 m, Infliximab 1 y, Cladribine 1.5 y, Tofacitinib 2 y
From the text: A person with a past medical history significant for Hashimoto's thyroiditis and positive celiac serology was initially seen for protein-losing enteropathy. Although they had previously been on a gluten-free diet (GFD) for 1 year after first being diagnosed with CD, they re-introduced gluten 3 years before pregnancy without symptoms. They stayed on gluten until one-month postpartum when they developed epigastric pain, nausea, diarrhea with 2-3 loose to watery stools daily, along with significant bilateral lower extremity edema.
At the time of initial hospital admission, they were five months postpartum with the above symptomatology. […] They were discharged to outpatient setting on a GFD and referred to a CD clinic for management.
(§1) During the initial outpatient visit in the CD clinic they were hypotensive with anasarca, diagnosed with celiac crisis, and urgently sent for readmission. They were treated with 72 hours of intravenous solumedrol 20 mg every 12 hours and then transitioned to open-capsule protocol budesonide 3 mg three times a day.
(§2) They were therefore switched to experimental infliximab after a total of 5 months on budesonide.
(§3) The patient was now about 18 months out from diagnosis of Type II RCD, which is associated with about 50% risk of lymphoma in 5 years, so it was imperative to find an effective regimen. […] Discussion of associated adverse events, including thromboembolic ones, was conducted, and pre-treatment labs including lipid profile were done. […] This was the first-time the patient achieved such results in the 2 years since presenting with celiac crisis. […] Their tofacitinib dose will be reduced to 5 mg twice daily to reduce associated adverse events.

[2] = test system: Type II refractory celiac disease; assay: Small bowel biopsy histology (modified Marsh classification) and immunophenotype in the Type II RCD patient; format: in vivo, human; details: for Pathology (Marsh lesion): same patient, Budesonide 3 m, Infliximab 1 y, Cladribine 1.5 y, Tofacitinib 2 y; for Marsh lesions on biopsy: tofacitinib 10 mg twice daily, four months
From the text: CD can be characterized using the modified Marsh classification scheme. A subject having a Marsh 0 score would be characterized as either healthy or if previously diagnosed with CD, as “CD in remission”. A Marsh 1 score is non-specific, rarely seen in CD, unless already on a GFD during endoscopy, and may be observed in subjects having dermatitis herpetiformis (DH) or in family members of CD patients, but also with other conditions as infections and adverse response to medications. A Marsh 2 score is rare and is sometimes observed in DH and again in CD patients already on a GFD. Marsh 3 score is characteristic of the spectrum of changes observed in symptomatic CD patients.
as §1, §2, §3

[3] = test system: Type II refractory celiac disease; assay: Endoscopic and clinical response of the Type II RCD patient; format: in vivo, human; details: for Endoscopic finding (ulcerative jejunitis / duodenopathy): budesonide 3 months, infliximab 9 months, tofacitinib 10 mg twice daily, four months
Procedure: as §1, §2, §3
However, malabsorption, malignancy, morbidity and mortality are known complications in Type II RCD (Cellier et al. (2000); Ilus et al. (2014); Weiss (2021) Diagnosis and Management of Gluten-Associated Disorders: A clinical casebook. Springer). Currently, the best clinical practice in managing RCD is to advocate for experimental medication treatment in adjunct to a strict gluten-free diet (GFD). Yet the same guidelines acknowledge the absence of treatments with proven efficacy in Type II RCD (Rubio-Tapia et al. (2013) Am. J. Gastroenterol., 108(5):656-677; Al-Toma et al. (2019) United European Gastroenterol. J.: 7(5):583-613). The European guidelines discuss the potential use of AMG714 or JAK inhibitor after corticosteroids, immunomodulators, and chemotherapy in the most refractory of CD cases. […] Additional studies are needed, but the therapy disclosed herein may be utilized in uncomplicated CD or non-responsive CD (NRCD) in combination with a GFD, or even as a substitute to one.

IL-15 = IL-15 (Homo sapiens, UniProt P40933); details: cited from earlier work
[4] = budesonide 3 months, infliximab 9 months

Sequence of IL-15 (P40933 49-162): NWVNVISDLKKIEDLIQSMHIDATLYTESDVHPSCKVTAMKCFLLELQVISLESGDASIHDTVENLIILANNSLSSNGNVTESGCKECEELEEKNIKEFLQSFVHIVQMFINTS

CCCC1O[C@@H]2C[C@H]3[C@@H]4CCC5=CC(=O)C=C[C@]5(C)[C@H]4[C@@H](O)C[C@]3(C)[C@]2(C(=O)CO)O1 (stereo partly shown) [Budesonide, budesonide]
CRP [1]: <0.3
DGP IgA [1]: 186.9
TTG IgA [1]: 152.3

Nc1nc(Cl)nc2c1ncn2[C@H]1C[C@H](O)[C@@H](CO)O1 [Cladribine, cladribine]
CRP [1]: <0.3
DGP IgA [1]: 57.7 (H)
TTG IgA [1]: 44.3 (H)
Pathology (Marsh lesion) [2]: Marsh 3A
Resolution of RCD ([3]; one dose of cladribine 10 mg IV): without resolution of their RCD

C[C@@H]1CCN(C(=O)CC#N)C[C@@H]1N(C)c1ncnc2[nH]ccc12 [Tofacitinib, tofacitinib]
CD serologies ([1]; four months after start of tofacitinib 10 mg twice daily): normalization of their CD serologies
CRP [1]: <0.3
DGP IgA [1]: 70 (H)
TTG IgA [1]: 5
Marsh lesions on biopsy [2, 4]: Marsh 1-2
Duodenal bulb biopsy histology (H&E) ([2]; during tofacitinib therapy, FIG. 2D): normal villous architecture with focal areas of crypt hyperplasia and an increase in intraepithelial lymphocytes
Pathology (Marsh lesion) [2]: Marsh 1-2
Endoscopic finding (ulcerative jejunitis / duodenopathy) [3]: reversed severe therapy-refractory duodenopathy; also recorded: improvement in their duodenopathy
Symptoms ([3]; during tofacitinib therapy): ameliorated symptoms of CD; also recorded: feeling well with minimum symptoms

AMG714: anti-IL-15 mAb
Results of AMG714 (IL-15): positive yet statistically insignificant results

infliximab
CRP [1]: <0.3
DGP IgA [1]: 53.9 (H)
TTG IgA [1]: 33.1 (H)
T-cell aberrancy / CD8 expression in intraepithelial T-lymphocytes [2, 4]: unchanged T-cell aberrancy
Marsh lesions on biopsy [2, 4]: Marsh 3A
Pathology (Marsh lesion) [2]: Marsh 3A
Endoscopic finding (ulcerative jejunitis / duodenopathy) [3]: resolution of their ulcerative jejunitis
